Measurements from ChEMBL document CHEMBL1139002, “Synthesis and biological evaluation of simplified mycothiazole analogues” (2006).

Key:
HCT-15 = assay: Cytotoxicity against HCT15 cell line by SRB assay; format: functional, Homo sapiens
[1] = test system: Nippostrongylus brasiliensis; assay: Anthelmintic activity against Nippostrongylus brasiliensis; format: functional

SMILES	IG50 (HCT-15) [µM]	LC50 [1] [µM]
C=CC/C=C\C[C@@H]1CSC(C(C)(C)C(O)C/C=C\CNC(=O)OC)=N1 (stereo partly drawn)	13	
CO[C@@]12[C@H](COC(N)=O)C3=C(C(=O)C(C)=C(N)C3=O)N1C[C@@H]1N[C@@H]12 [MITOMYCIN]	1.6	
C=CC/C=C\C[C@@H]1CSC(C(C)(C)C(C/C=C\CNC(=O)OC)OC(C)=O)=N1 (stereo partly drawn)		> 300
C=CCC1COC(C(C)(C)C(C/C=C\CNC(=O)OC)OC(C)=O)=N1 (stereo not drawn)	430	40
CCCSc1ccc2[nH]c(NC(=O)OC)nc2c1 [ALBENDAZOLE]		0.34
C=CC/C=C\C[C@@H]1COC(C(C)(C)C(C/C=C\CNC(=O)OC)OC(C)=O)=N1 (stereo partly drawn)	150	40
